Data reported in publication PMC9414874, “New Benzimidazoles Targeting Breast Cancer: Synthesis, Pin1 Inhibition, 2D NMR Binding, and Computational Studies” (Molecules, 2022).
Where “and” joins values, the source holds several entries; their conditions need not be identical. Identical values can stand only once. Like-named read-outs stand apart in the source and are kept apart here.

Experiments:
[1] = tested on: BAX; assay: BAX level by ELISA in MCF-7 cells; assay type: cell-based, human
Protocol: (§1) Apoptosis can be excited by different stimuli via intrinsic and extrinsic pathways. It was reported that pin 1 inhibition involving apoptosis was performed via intrinsic mitochondrial l) pathways. […] The Bax/Bcl-2 ratio plays an important role in controlling the release of mitochondrial cytochrome c, after its release to the cytosol, caspase 9 is activated which can mediate downstream caspase activation including: caspase-3, caspase-6, and caspase-7 that obligated cells to apoptosis. Based on the above, we examined compound 8 capability to trigger intrinsic apoptotic pathways by affecting the expression of these markers in MCF-7 cells. […] In addition, it elevated the level of cytochrome C by about 2.49-fold compared to the control. […]
(§2) The level of BAX, Bcl-2, cytochrome C, and caspases 6, 7, and 9 were estimated using ELISA colorimetric kits; for BAX (DRG® Human Bax ELISA, EIA-4487), Bcl-2 (Zymed® Bcl-2 ELISA Kit), cytochrome c (Abcam cytochrome c Human ELISA kit, ab119521), caspase-6 (Human CASP6, ELISA Kit, MBS2533323), caspase-7 (Caspase-7 (Human) ELISA Kit, E4295-100), caspase-9 (DRG® Caspase-9 (human) ELISA, EIA-4860). […] This lysate was diluted in Standard Diluent Buffer all over the assay, then by using a microplate reader set at 450 nm, the optical density of each well was determined within 30 min to determine the human active BAX, Bcl-2, cytochrome C, caspases 6, 7 and 9 content.

[2] = tested on: MCF-7 cells; assay: Cell cycle distribution / DNA content by flow cytometry; assay type: cell-based, human; details: MCF-7, 2 µM, 24 h
[3] = tested on: caspase-7; assay: Caspase-7 level by ELISA in MCF-7 cells; assay type: cell-based, human
Protocol: as §1, §2

[4] = In vitro cytotoxicity against normal Human lung fibroblast (WI38) cell line; assay type: cell-based; details: human, WI38 normal lung fibroblast cells
[5] = tested on: WI38; assay: as above; assay type: cell-based
[6] = tested on: caspase-9; assay: Caspase-9 level by ELISA in MCF-7 cells; assay type: cell-based, human
Protocol: as §1, §2

[7] = tested on: Bcl-2; assay: Bcl-2 level by ELISA in MCF-7 cells; assay type: cell-based, human
Protocol: as §1, §2

[8] = tested on: caspase-6; assay: Caspase-6 level by ELISA in MCF-7 cells; assay type: cell-based, human; details: mean ± SD of three experiments
Protocol: as §1, §2

[9] = tested on: cytochrome C; assay: Cytochrome c level by ELISA in MCF-7 cells; assay type: cell-based, human
Protocol: as §1, §2

[10] = tested on: MCF-7; assay: MTT cytotoxicity assay against breast cancer cell line MCF-7; details: for IC50: Homo sapiens
Protocol: All our newly synthesized hybrids were evaluated for their in vitro anticancer activity by the standard MTT assay against a breast cancer cell line (MCF-7). MTT is a calorimetric assay which relies on the ability of live tumor cells to reduce yellow MTT (3-(4,5-dimethylthiazol-2-yl)-2,5-diphenyltetrazolium bromide) to purple formazan by mitochondrial dehydrogenases, then added DMSO to dissolve the purple formazan and quantified by measuring absorbance at a certain wavelength. The dose response curve for compounds-treated vs. untreated cells is used to quantify the amount of formazan produced to report on the effectiveness of the compounds. […] Cell line: Mammary gland breast cancer (MCF-7). The cell line was obtained from ATCC via Holding company for biological products and vaccines (VACSERA), Cairo, Egypt. […] The cell line elucidated above were used to determine the inhibitory effects of compounds on cell growth using the MTT assay. […] After incubation, the cells were treated with different concentrations of compounds and incubated for an additional 24 h. After 24 h of drug treatment, 20 µL of MTT solution at 5 mg/mL was added and incubated for 4 h. […] The relative cell viability in percentage was calculated as (A570 of treated samples/A570 of the untreated sample) × 100 [48].

[11] = tested on: ROS in MCF-7 cells; assay: Intracellular ROS accumulation assay (Human ROS ELISA Kit); assay type: cell-based
Text: Reactive oxygen species (ROS) are chemically reactive species containing oxygen atoms including peroxides, superoxide, and hydroxyl radicals. They play an important role in the activation of apoptosis under physiological or pathological conditions. Direct or indirect ROS action can mediate the release of mitochondrial cytochrome c which trigger the induction of caspase. The intracellular level of ROS was estimated by The Human ROS ELISA Kit, which is based on standard sandwich enzyme-linked immunosorbent assay technology.
The Human ROS ELISA Kit is based on standard sandwich enzyme-linked immunosorbent assay technology. In which, the anti-Human ROS specific antibody has been pre-coated onto a 96-well plate and the human ROS present in the standards/samples bind to the capture antibody. Then biotinylated anti-Human ROS detection antibody is added to form an Ab-Ag-Ab sandwich. After a washing step, streptavidin-HRP is added and the unbound conjugate is removed with wash buffer. Subsequently, the addition of HRP substrate, TMB, results in the production of a blue-colored product that changes to yellow after the addition of acidic Stop Solution, and the density of yellow color is directly proportional to the amount of Human ROS captured on the plate. […] After that adding 90 μL TMB substrate, incubating 15–30 min at 37 °C, adding 50 μL Stop Solution and reading at 450 nm immediately. […]

[12] = target: Pin1 (Homo sapiens, UniProt Q13526); assay: Pin1 inhibition assay (SensoLyte Green Pin1 Assay Kit); assay type: biochemical; set-up: purchased; details: means ± SD of three experiments
Sequence of Pin1 (Q13526 whole entry): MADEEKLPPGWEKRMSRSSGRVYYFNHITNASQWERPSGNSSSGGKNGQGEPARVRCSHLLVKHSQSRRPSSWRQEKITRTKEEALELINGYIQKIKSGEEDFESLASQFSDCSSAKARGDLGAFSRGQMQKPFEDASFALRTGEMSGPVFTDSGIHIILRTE
Protocol: The ability of the synthesized compounds to inhibit the Pin1 activity was evaluated using the SensoLyte® Green Pin1 Assay Kit. This assay is based on using a fluorogenic substrate which was pretreated to convert it into the cis isomer. Pin1 can change this substrate into the trans isomer that is easily cleaved to generate a fluorescent signal.

[13] = tested on: MCF-7 cells; assay: Annexin V-FITC/PI dual staining apoptosis assay; assay type: cell-based, human; details: MCF-7, 2 µM, 24 h
Protocol: This assay was performed using a breast MCF-7 cell line to determine the percentage of apoptosis induced by compound 8, in which MCF-cells were incubated with compound 8 at 2 µM concentration for 24 h.
Apoptosis detection was performed by using Annexin V-FITC and PI apoptosis kit (eBioscience^TM, San Diego, CA, USA). Mcf cells were plated at a 600,000 cells/mL density onto a six well plate. After 24 h of incubation, the cells were treated with compound 8 at […]. Cells grown in media containing an equivalent amount of DMSO served as solvent control. After 24 h, the cells were stained with an Annexin V-FITC conjugate and propidium iodide (PI), and the percentage of apoptotic, necrotic, and living cells was determined according to the protocol provided by the Annexin V-FITC and PI apoptosis kit. The cells’ emitted fluorescence was analyzed by flow cytometry (NovoCyte, ACEA Biosciences Inc., San Diego, CA, USA) through the NovoExpress 1.3.0 software (ACEA Biosciences Inc., San Diego, CA, USA), acquiring 1 × 104 events per sample using the population plot “dot plot”, where each point corresponds to a single event with a specific fluorescence signal about the axes; Annexin V-FITC green fluorescence in abscissa vs. PE red fluorescence inordinate.

SMILES: CN(C)c1ccc(C2CC(c3nc4cc(Cl)c(Cl)cc4[nH]3)=NO2)cc1 (stereo not shown) [Compound 8, 4-(3-(5,6-Dichloro-1H-benzo[d]imidazol-2-yl)-4,5-dihydroisoxazol-5-yl)-N,N-dimethylaniline]
- Increase of Bax level compared to the control [1]: 4.63 fold
- BAX level ([1]; mean ± SD of three experiments): 268.71 ± 9.20 pg/mL
- DNA Content %G0-G1 [2]: 44.29%
- DNA Content %G2-M [2]: 6.45%
- DNA Content %Pre G1 [2]: 38.25%
- DNA Content %S [2]: 49.26%
- Enhancement of caspase 7 level compared to the control [3]: ~9.06 fold
- Casp.7 level ([3]; mean ± SD of three experiments): 4.17 ± 0.11 ng/mL
- IC50 at 24 h [4]: 71.6 µM
- IC50 [5]: 71.6 ± 4 µM
- Enhancement of caspase 9 level compared to the control [6]: ~8.97 fold
- Casp.9 level ([6]; mean ± SD of three experiments): 20.86 ± 0.73 ng/mL
- Decrease of Bcl-2 level compared to the control [7]: 39%
- BCL-2 level ([7]; mean ± SD of three experiments): 2.81 ± 0.07 ng/mL
- melting point: 155 to 158 °C
- Casp.6 level [8]: 0.48 ± 0.02 ng/mL
- Elevation of cytochrome C level compared to the control [9]: about 2.49 fold
- Cytoc level ([9]; mean ± SD of three experiments): 0.62 ± 0.02 ng/mL
- IC50 ([10]; MCF7, 24 h, read-out: In Vitro Cytotoxicity IC50 MCF-7, MTT assay, 24 h treatment): 8.7 ± 0.6 µM
- IC50 ([10]; MCF7, read-out: IC50 against breast cancer cell line (MCF-7), MTT assay, section 2.2): 8.76 µM
- Cytotoxic activity class against MCF-7 ([10]; class by IC50): very strong (1–10 (very strong))
- ROS accumulation higher than the control cells [11]: 1.258 fold
- IC50 [12]: 0.00076 ± 4e-05 µM
- Apoptosis Early [13]: 3.7% and 3.71%
- Apoptosis Late [13]: 15.32%
- Apoptosis Total [13]: 38.25%
- Increase of apoptosis (15.32%) over untreated cells [13]: 128 fold
- Necrosis [13]: 19.22%
